Laboratory results as given in article PMC11363342 (ACS Central Science, 2024).

Columns and labels:
Type in all cases: cell-based
SARS-CoV-2 [1] = experiment: Viral load reduction assay in ALI-PBEC; conditions: ALI-PBEC
Method: Thus, ALI-PBEC cells were infected with SARS-CoV-2 (10^5 PFU per insert; estimated MOI ∼0.1) and treated with compounds on the apical side of the cells for 2 h. For uninfected controls, PBS was used instead of virus. The compounds were also present in the basal medium during the whole experiment until 48 hpi, when samples were harvested. […] (Figure 4D).
ALI-PBEC were pretreated with compound in the basal medium for 3 h. Cells were infected with 100 000 PFU of SARS-CoV-2/Leiden0008 per insert (estimated MOI 0.1) with compounds present in the inoculum. After 2 h at 37 °C on a rocking platform, the inoculum was removed and cells were washed three times with warm PBS. Compounds stayed present in the basal medium until 48 h postinfection. At 48 hpi the viral load was determined by plaque assay on a 200 μL apical wash (PBS incubated on the apical side of the insets for 10 min at 37 °C). For assessing cytotoxicity with the CyQuant LDH cytotoxicity assay (Thermo Fisher Scientific), 10 μL of apical wash was diluted 5 times with 40 μL of PBS. A 25 μL volume of this dilution was added to 25 μL of assay reagent and incubated for 30 min at RT in the dark. The plate was fixed and measured at a wavelength of 490 nm (Envision reader, PerkinElmer). For the activity-based probe labeling, the insets were washed one more time with PBS and processed as described previously.[52] Briefly, cells were lysed with 60 μL of potassium phosphate buffer per insert. A fluorescently labeled probe (JJB383) was diluted in MclIvaine buffer (pH 7) to a 10 μM stock and incubated for 5 min on ice. For labeling of the cell lysate, 10 μL of lysate was added to 10 μL of MclIvaine buffer and 5 μL of probe. The lysate was incubated for 30 min at 37 °C before the addition of 10 μL of Laemmli sample buffer (4×). Samples were heated at 95 °C for 5 min and separated in a 10% SDS-PAGE gel. Fluorescence was measured at a wavelength of 625 nm (Cy5) with a Uvitec Alliance Q9 imager (BioSPX). After imaging, the gels were stained with GelCode Blue stain reagent (Thermo Fisher Scientific) and visualized using a Uvitec Essential V6 system to check for equal loading.

GAA = GAA (Homo sapiens, UniProt P10253); experiment: Competitive activity-based protein profiling with ABP 29 in ALI-PBEC lysate, GAA; conditions: pH 7, 48 hpi
SARS-CoV = conditions: Vero E6, MOI 1, 16 hpi, increasing concentrations
SARS-CoV-2 S protein = test system: SARS-CoV-2 S protein
SARS-CoV-2 [2] = experiment: Viral load reduction assay in Calu-3 cells, extracellular viral RNA copies by RT-qPCR; conditions: Calu-3, MOI 1, 16 hpi
Method: Cells were pretreated with 11 and infected with SARS-CoV-2 at a multiplicity of infection (MOI) of 1. At 16 h postinfection (hpi) supernatant was harvested to quantify the infectious virus titer by plaque assay and extracellular viral RNA copies by RT-qPCR. […] This is in line with the expected mechanism of action of the compound that involves viral (structural) protein maturation, likely resulting in reduced infectivity of progeny virus. We then calculated the specific infectivity (defined as the number of infectious particles per viral RNA copy) of treated and untreated samples for the data in Figure 3A,B (Figure 3C). […] None of the treatments caused noticeable cytotoxicity in uninfected treated cells (Figure 3B). Similarly, treatment of infected Calu-3 lung epithelial cells with 11 reduced infectious progeny virus titers by ∼10-fold, while no reduction in extracellular viral RNA copies was observed (Figure S3).
Figure S2: Cytopathic effect reduction assays on Vero E6 monkey kidney cells and H1299/ACE2 human lung epithelial cells. […]
plaque assay and RT-qPCR, respectively. Uninfected compound-treated cells were assessed by MTS assay in parallel to measure cytotoxicity of the compounds. n=3 independent experiments. […]

`O=S1(=O)O[C@@H]2[C@H](O)[C@@H](O)[C@H](O)[C@@H](CO)[C@@H]2O1` [Compound 11, 1,6-epi-cyclophellitol cyclosulfate] was tested, and the “concentration at which the maximum antiviral effect was reached” value (SARS-CoV-2 [1]) was 0.5 µM, the “reduction of viral load vs untreated control” value (SARS-CoV-2 [1]; 0.5 μM, 48 hpi) was “up to 100 fold” and the “reduction of infectious virus titers” value (SARS-CoV-2 [1]; 0.5–1.6 μM) was “up to 2 logs”. The “in cellulo GAA inhibition by ABP 29 labeling (in words)” value (GAA) was “most efficient in inhibiting ER α-Glu II and GAA at low concentrations”, the “infectious progeny of SARS-CoV (in words)” value (SARS-CoV) was “significant reduction of infectious progeny” and the “(processed) S2 in the medium” value (SARS-CoV-2 S protein) was “strongly reduced”. The “full-length S protein in the cell lysate” value (SARS-CoV-2 S protein) was “minor reduction”, the “∼90 kDa S2 fragment in the cell lysate” value (SARS-CoV-2 S protein) was “almost complete disappearance” and the “extracellular viral RNA copies (in words)” value (SARS-CoV-2 [2]) was “no reduction”.
